In patent publication US20170190671A1, “BIS(ARYL)CATECHOL DERIVATIVES AS HERBICIDES” (E I DU PONT DE NEMOURS AND COMPANY, priority 2014, published 2017):

How the values were obtained:
[1] = tested on: barnyardgrass (Echinochloa crus-galli); test: Test A postemergence; format: in vivo; conditions: Echinochloa crus-galli, post-emergence, 240 h, 0 to 100 scale, read-out: Plant response rating, Barnyardgrass
Outline: (§1)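 Pre- and postemergence greenhouse screen. Soil: loam + sand. Spray carrier: solvent mixture, non-phytotoxic, with surfactant. Post timing at 1–2 leaves, height 2–10 cm. Readout: visual injury on a 0–100 scale roughly 10 days after application, untreated plants as reference.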

corn (Zea mays) = test: Test A postemergence; format: in vivo; conditions: Zea mays, post-emergence, 240 h, 0 to 100 scale
Outline: as §1

[2] = tested on: giant foxtail (Setaria faberii); test: Test A postemergence; format: in vivo; conditions: Setaria faberi, post-emergence, 240 h, 0 to 100 scale, read-out: Plant response rating, Foxtail, Giant
Outline: as §1

kochia (Kochia scoparia) [3] = test: Test A postemergence; format: in vivo; conditions: Bassia scoparia, post-emergence, 240 h, 0 to 100 scale, read-out: Plant response rating, Kochia
Outline: as §1

[4] = tested on: pigweed (Amaranthus retroflexus); test: Test A postemergence; format: in vivo; conditions: Amaranthus retroflexus, post-emergence, 240 h, 0 to 100 scale, read-out: Plant response rating, Pigweed
Outline: as §1

[5] = tested on: wheat (Triticum aestivum); test: Test A postemergence; format: in vivo; conditions: Triticum aestivum, post-emergence, 240 h, 0 to 100 scale, read-out: Plant response rating, Wheat
Outline: as §1

[6] = tested on: ragweed (common ragweed, Ambrosia elatior); test: Test A postemergence; format: in vivo; conditions: Ambrosia artemisiifolia, post-emergence, 240 h, 0 to 100 scale, read-out: Plant response rating, Ragweed
Outline: as §1

[7] = tested on: galium (catchweed bedstraw, Galium aparine); test: Test A postemergence; format: in vivo; conditions: Galium, post-emergence, 240 h, 0 to 100 scale, read-out: Plant response rating, Galium
Outline: as §1

[8] = tested on: blackgrass (Alopecurus myosuroides); test: Test A postemergence; format: in vivo; conditions: Alopecurus myosuroides, post-emergence, 240 h, 0 to 100 scale, read-out: Plant response rating, Blackgrass
Outline: as §1

[9] = tested on: Italian ryegrass (Lolium multiflorum); test: Test A postemergence; format: in vivo; conditions: Lolium multiflorum, post-emergence, 240 h, 0 to 100 scale, read-out: Plant response rating, Ryegrass, Italian
Outline: as §1

[10] = tested on: barnyardgrass (Echinochloa crus-galli); test: Test A preemergence; format: in vivo; conditions: Echinochloa crus-galli, pre-emergence, 240 h
Outline: as §1

[11] = tested on: giant foxtail (Setaria faberii); test: Test A preemergence; format: in vivo; conditions: Setaria faberi, pre-emergence, 240 h, 0 to 100 scale (0 no effect, 100 complete control), read-out: Foxtail, Giant plant response rating
Outline: as §1

kochia (Kochia scoparia) [12] = test: Test A preemergence; format: in vivo; conditions: Bassia scoparia, pre-emergence, 240 h, 0 to 100 scale (0 no effect, 100 complete control), read-out: Kochia plant response rating
Outline: as §1

[13] = tested on: pigweed (Amaranthus retroflexus); test: Test A preemergence; format: in vivo; conditions: Amaranthus retroflexus, pre-emergence, 240 h, 0 to 100 scale (0 no effect, 100 complete control), read-out: Pigweed plant response rating
Outline: as §1

[14] = tested on: ragweed (common ragweed, Ambrosia elatior); test: Test A preemergence; format: in vivo; conditions: Ambrosia artemisiifolia, pre-emergence, 240 h, 0 to 100 scale (0 no effect, 100 complete control), read-out: Ragweed plant response rating
Outline: as §1

[15] = tested on: Italian ryegrass (Lolium multiflorum); test: Test A preemergence; format: in vivo; conditions: Lolium multiflorum, pre-emergence, 240 h, 0 to 100 scale (0 no effect, 100 complete control), read-out: Ryegrass, Italian plant response rating
Outline: as §1

Fc1cnc(Oc2c(F)ccc(F)c2Oc2ncc(Cl)cn2)nc1 [Compound 28]
60%: pest or weed control at 125 g/ha ([4]; 125 g ai/ha)
0%: pest or weed control at 31 g/ha ([1]; 31 g ai/ha) | pest or weed control at 125 g/ha ([1]; 125 g ai/ha) | Corn plant response rating (crop injury, 0 = no effect, 100 = complete kill) at 31 g/ha (corn (Zea mays); 31 g ai/ha) | Corn plant response rating (crop injury, 0 = no effect, 100 = complete kill) at 125 g/ha (corn (Zea mays); 125 g ai/ha) | pest or weed control at 31 g/ha ([2]; 31 g ai/ha) | plant injury at 31 g/ha ([5]; 31 g ai/ha) | plant injury at 125 g/ha ([5]; 125 g ai/ha) | pest or weed control at 31 g/ha ([8]; 31 g ai/ha) | pest or weed control at 31 g/ha ([9]; 31 g ai/ha) | pest or weed control at 125 g/ha ([9]; 125 g ai/ha) | pest or weed control at 31 g/ha ([10]; 31 g ai/ha, 0 to 100 scale (0 no effect, 100 complete control), read-out: Barnyardgrass plant response rating) | pest or weed control at 31 g/ha (kochia (Kochia scoparia) [12]; 31 g ai/ha) | pest or weed control at 31 g/ha ([14]; 31 g ai/ha) | pest or weed control at 125 g/ha ([14]; 125 g ai/ha) | pest or weed control at 31 g/ha ([15]; 31 g ai/ha) | pest or weed control at 125 g/ha ([15]; 125 g ai/ha)
80%: pest or weed control at 125 g/ha ([13]; 125 g ai/ha)
50%: pest or weed control at 31 g/ha ([4]; 31 g ai/ha) | pest or weed control at 31 g/ha ([13]; 31 g ai/ha)
10%: pest or weed control at 31 g/ha ([6]; 31 g ai/ha) | pest or weed control at 125 g/ha ([10]; 125 g ai/ha, 0 to 100 scale, read-out: Plant response rating, Barnyardgrass) | pest or weed control at 31 g/ha ([11]; 31 g ai/ha)
40%: pest or weed control at 125 g/ha ([11]; 125 g ai/ha)
30%: pest or weed control at 31 g/ha (kochia (Kochia scoparia) [3]; 31 g ai/ha) | pest or weed control at 125 g/ha ([6]; 125 g ai/ha)
94 to 98 °C: melting point
70%: pest or weed control at 125 g/ha (kochia (Kochia scoparia) [3]; 125 g ai/ha) | pest or weed control at 125 g/ha ([7]; 125 g ai/ha)
20%: pest or weed control at 125 g/ha ([2]; 125 g ai/ha) | pest or weed control at 31 g/ha ([7]; 31 g ai/ha) | pest or weed control at 125 g/ha ([8]; 125 g ai/ha) | pest or weed control at 125 g/ha (kochia (Kochia scoparia) [12]; 125 g ai/ha)
